According to publication PMC12114510, “Antimicrobial, Antioxidant, and α-Glucosidase-Inhibitory Activities of Prenylated p-Hydroxybenzoic Acid Derivatives from Oberonia ensiformis” (Molecules, 2025):
Where a name gives a salt, the structure may show the parent alone.

Legend:
α-glucosidase = assay: α-Glucosidase inhibition assay (PNPG method); assay type: biochemical; conditions: for IC50, inhibition of α-glucosidase: mean ± SD, PNPG method, 5 and 6 tested as epimeric mixtures
Procedure: The inhibitory activity of the obtained compounds on α-glucosidase was evaluated using the method mentioned in previous studies with minor modifications. […] Subsequently, 50 μL of 5.0 mM p-Nitrophenyl α-D-glucopyranoside (pNPG, dissolved in 0.1 M PB, pH 6.8) was added to the mixture. After incubation at 37 °C for 30 min, the reaction was stopped by adding 80 μL of 0.2 M sodium carbonate solution (dissolved in ultrapure water) to the reaction system. The absorbance value was measured at 405 nm using a microplate reader. […] Ac: Absorbance of the reaction system containing 20 μL PBS, 50 μL α-glucosidase, and 50 μL pNPG.

[1] = DPPH radical scavenging (antioxidant) assay; conditions: for IC50, clearance rate of DPPH: mean ± SD, 5 and 6 tested as epimeric mixtures
Procedure: The activity screening of 18 compounds isolated from O. ensiformis was carried out using 96-well plates and an enzyme labeler with DPPH methanol solution as substrate (0.15 mmol/L) and sodium ascorbate as positive control. The gradient mass concentration of the samples to be tested was 200, 100, 50, 25, 12.5 μg/mL and then divided into a sample group (100 μL DPPH solution + 100 μL sample, A), a sample control group (100 μL methanol + 100 μL sample, A0), and a negative control (100 μL DPPH solution + 100 μL methanol, A1). The samples to be tested were fully reacted under light-avoiding conditions, and the OD values were determined at 517 nm after 30 min [23]. The experiments were performed three times in parallel, and the DPPH radical scavenging rate was calculated. The scavenging rate of DPPH radical was calculated according to the following equation [24].E = [1 − (A − Aa)/Ab] × 100% A:100 μL of test compounds or L-Ascorbic Acid Sodium Salt and 100 μL of DPPH. Aa: 100 μL of test compounds or L-Ascorbic Acid Sodium Salt and 100 μL of MeOH. Ab: 100 μL of MeOH and 100 μL of DPPH.

inhibitory activity against α-glucosidase (in words) (α-glucosidase)	IC50, inhibition of α-glucosidase (α-glucosidase) [µg/mL]	IC50, clearance rate of DPPH [1] [µg/mL]	Structure (SMILES)	DPPH radical scavenging activity [1] [%]
no significant activity	–	–	C=C(C)C(O)Cc1cc(C(=O)O)cc(CCC(C)(C)O)c1O (centres unmarked) [Compound 11, oberoniamyosurusin E]	–
no significant activity	–	–	CC(C)(O)CCc1cc(C(=O)O)cc2c1OC(C)(C)C=C2 [Compound 16, 1iparacids C]	–
no significant activity	–	–	C=C(C)C(O)Cc1cc(C(=O)O)cc2c1OC(C)(C)C=C2 (centres unmarked) [Compound 10, liparacid A]	–
weak	106.10 ± 2.12	–	C=C(C)C(O)Cc1cc(C(=O)OC(C)C(C)(O)C(=O)O)cc(CC=C(C)C)c1O (centres unmarked) [Compound 5, Oberoniaensiformisin E]	–
strong	38.80 ± 4.43	–	CC(C)=CCc1cc(C(=O)O)cc2c1OC(C(C)(C)O)C2 (centres unmarked) [Compound 15, oberoniamyosurusins I]	–
no significant activity	–	–	C=C(C)C(O)Cc1cc(C(=O)O)cc(CC(O)C(=C)C)c1O (centres unmarked) [Compound 18, liparacid B]	–
no significant activity	–	–	CC(C)(O)CCc1cc(C(=O)O)cc(CCC(C)(C)O)c1O [Compound 17, oberoniamyosurusin F]	–
moderate	86.53 ± 1.08	–	CC(C)=CCc1cc(C(=O)O[C@@H]2CC(C(=O)O)=C[C@@H](O)[C@H]2O)cc2c1OC(C)(C)C=C2 [Compound 13, oberoniamyosurusin L]	–
strong	34.03 ± 0.16	185.36 ± 1.96	CC(C)=CCc1cc(C(=O)O)cc(CC=C(C)C)c1O [Compound 12, nervogenic acid]	> 50
moderate	58.07 ± 6.22	173.76 ± 23.92	C=C(C)C(O)Cc1cc(C(=O)O[C@@H]2CC(C(=O)O)=C[C@@H](O)[C@H]2O)cc(CC=C(C)C)c1O (some centres unmarked) [Compound 6, oberoniaensiformisin F]	> 50
–	–	2.37 ± 0.11	O=C1O[C@H]([C@@H](O)CO)C(O)=C1O [L-ascorbate, L-Ascorbic Acid Sodium Salt, reference compound]	–
